Test results taken from the NIST ThermoML archive (doi:10.1016/j.jct.2015.01.005).
Numbers after ± are expanded uncertainties.

Experiment: molar heat capacity at saturation pressure
Settings: Crystal 2, Small (less than 1 g) adiabatic calorimetry

O[C@@H]1[C@@H](O)[C@@H]2OC[C@@H](O2)[C@H]1O [1,6-anhydro-β-D-glucopyranose]
molar heat capacity (5.26 K): 0.1543 ± 0.018 J/K/mol | molar heat capacity (5.62 K): 0.1754 ± 0.018 J/K/mol | molar heat capacity (5.93 K): 0.2008 ± 0.018 J/K/mol | molar heat capacity (6.31 K): 0.2396 ± 0.019 J/K/mol | molar heat capacity (6.75 K): 0.2955 ± 0.019 J/K/mol | molar heat capacity (7.19 K): 0.3641 ± 0.02 J/K/mol | molar heat capacity (7.65 K): 0.4465 ± 0.021 J/K/mol | molar heat capacity (8.1 K): 0.5445 ± 0.023 J/K/mol | molar heat capacity (8.57 K): 0.6608 ± 0.025 J/K/mol | molar heat capacity (9.04 K): 0.7922 ± 0.027 J/K/mol | molar heat capacity (9.51 K): 0.9407 ± 0.029 J/K/mol | molar heat capacity (9.99 K): 1.112 ± 0.031 J/K/mol | molar heat capacity (10.53 K): 1.33 ± 0.035 J/K/mol | molar heat capacity (11.15 K): 1.603 ± 0.038 J/K/mol | molar heat capacity (11.77 K): 1.9 ± 0.042 J/K/mol | molar heat capacity (12.4 K): 2.236 ± 0.047 J/K/mol | molar heat capacity (13.05 K): 2.607 ± 0.051 J/K/mol | molar heat capacity (13.7 K): 3.009 ± 0.056 J/K/mol | molar heat capacity (14.35 K): 3.44 ± 0.06 J/K/mol | molar heat capacity (15.01 K): 3.908 ± 0.064 J/K/mol | molar heat capacity (15.78 K): 4.473 ± 0.069 J/K/mol | molar heat capacity (16.65 K): 5.151 ± 0.074 J/K/mol | molar heat capacity (17.53 K): 5.868 ± 0.079 J/K/mol | molar heat capacity (18.42 K): 6.609 ± 0.082 J/K/mol | molar heat capacity (19.31 K): 7.372 ± 0.086 J/K/mol | molar heat capacity (20.21 K): 8.174 ± 0.091 J/K/mol | molar heat capacity (21.39 K): 9.247 ± 0.098 J/K/mol | molar heat capacity (22.86 K): 10.63 ± 0.11 J/K/mol | molar heat capacity (24.35 K): 12.04 ± 0.11 J/K/mol | molar heat capacity (25.84 K): 13.46 ± 0.12 J/K/mol | molar heat capacity (27.08 K): 14.64 ± 0.12 J/K/mol | molar heat capacity (28.51 K): 16.01 ± 0.13 J/K/mol | molar heat capacity (30.04 K): 17.43 ± 0.15 J/K/mol | molar heat capacity (31.72 K): 19.01 ± 0.16 J/K/mol | molar heat capacity (33.56 K): 20.71 ± 0.17 J/K/mol | molar heat capacity (35.41 K): 22.39 ± 0.18 J/K/mol | molar heat capacity (37.27 K): 24 ± 0.19 J/K/mol | molar heat capacity (39.13 K): 25.62 ± 0.19 J/K/mol | molar heat capacity (41.1 K): 27.29 ± 0.2 J/K/mol | molar heat capacity (43.17 K): 29.02 ± 0.21 J/K/mol | molar heat capacity (45.24 K): 30.72 ± 0.22 J/K/mol | molar heat capacity (47.32 K): 32.39 ± 0.23 J/K/mol | molar heat capacity (49.4 K): 34.01 ± 0.24 J/K/mol | molar heat capacity (51.49 K): 35.61 ± 0.24 J/K/mol | molar heat capacity (53.58 K): 37.22 ± 0.25 J/K/mol | molar heat capacity (55.67 K): 38.75 ± 0.26 J/K/mol | molar heat capacity (57.78 K): 40.27 ± 0.27 J/K/mol | molar heat capacity (59.89 K): 41.77 ± 0.28 J/K/mol | molar heat capacity (62 K): 43.24 ± 0.28 J/K/mol | molar heat capacity (64.11 K): 44.7 ± 0.29 J/K/mol | molar heat capacity (66.22 K): 46.15 ± 0.3 J/K/mol | molar heat capacity (68.34 K): 47.58 ± 0.31 J/K/mol | molar heat capacity (70.46 K): 49 ± 0.32 J/K/mol | molar heat capacity (72.68 K): 50.47 ± 0.32 J/K/mol | molar heat capacity (75.01 K): 51.98 ± 0.33 J/K/mol | molar heat capacity (77.35 K): 53.49 ± 0.33 J/K/mol | molar heat capacity (78.72 K): 54.4 ± 0.34 J/K/mol | molar heat capacity (79.68 K): 54.97 ± 0.34 J/K/mol | molar heat capacity (80.68 K): 55.63 ± 0.35 J/K/mol | molar heat capacity (80.76 K): 55.68 ± 0.35 J/K/mol | molar heat capacity (82.03 K): 56.47 ± 0.36 J/K/mol | molar heat capacity (82.6 K): 56.8 ± 0.36 J/K/mol | molar heat capacity (82.68 K): 56.86 ± 0.36 J/K/mol | molar heat capacity (84.52 K): 57.99 ± 0.36 J/K/mol | molar heat capacity (84.6 K): 58.06 ± 0.36 J/K/mol | molar heat capacity (86.44 K): 59.2 ± 0.37 J/K/mol | molar heat capacity (86.52 K): 59.23 ± 0.37 J/K/mol | molar heat capacity (88.37 K): 60.4 ± 0.37 J/K/mol | molar heat capacity (88.45 K): 60.45 ± 0.37 J/K/mol | molar heat capacity (90.29 K): 61.6 ± 0.4 J/K/mol | molar heat capacity (90.37 K): 61.65 ± 0.4 J/K/mol | molar heat capacity (92.23 K): 62.79 ± 0.41 J/K/mol | molar heat capacity (92.3 K): 62.82 ± 0.41 J/K/mol | molar heat capacity (94.16 K): 63.97 ± 0.41 J/K/mol | molar heat capacity (94.23 K): 64.01 ± 0.41 J/K/mol | molar heat capacity (96.1 K): 65.16 ± 0.42 J/K/mol | molar heat capacity (96.17 K): 65.21 ± 0.42 J/K/mol | molar heat capacity (98.04 K): 66.35 ± 0.43 J/K/mol | molar heat capacity (98.11 K): 66.41 ± 0.43 J/K/mol | molar heat capacity (99.98 K): 67.6 ± 0.43 J/K/mol | molar heat capacity (100.05 K): 67.69 ± 0.43 J/K/mol | molar heat capacity (101.92 K): 69.02 ± 0.44 J/K/mol | molar heat capacity (101.99 K): 69.12 ± 0.44 J/K/mol | molar heat capacity (103.87 K): 70.46 ± 0.44 J/K/mol | molar heat capacity (103.93 K): 70.5 ± 0.44 J/K/mol | molar heat capacity (105.82 K): 71.75 ± 0.45 J/K/mol | molar heat capacity (105.88 K): 71.76 ± 0.45 J/K/mol | molar heat capacity (107.77 K): 72.94 ± 0.45 J/K/mol | molar heat capacity (107.83 K): 72.96 ± 0.45 J/K/mol | molar heat capacity (109.73 K): 74.07 ± 0.46 J/K/mol | molar heat capacity (109.79 K): 74.13 ± 0.46 J/K/mol | molar heat capacity (111.69 K): 75.2 ± 0.46 J/K/mol | molar heat capacity (111.75 K): 75.25 ± 0.46 J/K/mol | molar heat capacity (113.65 K): 76.35 ± 0.47 J/K/mol | molar heat capacity (113.71 K): 76.37 ± 0.47 J/K/mol | molar heat capacity (115.61 K): 77.45 ± 0.48 J/K/mol | molar heat capacity (115.67 K): 77.49 ± 0.48 J/K/mol | molar heat capacity (117.58 K): 78.55 ± 0.48 J/K/mol | molar heat capacity (117.64 K): 78.6 ± 0.48 J/K/mol | molar heat capacity (119.55 K): 79.66 ± 0.49 J/K/mol | molar heat capacity (119.61 K): 79.69 ± 0.49 J/K/mol | molar heat capacity (121.58 K): 80.81 ± 0.49 J/K/mol | molar heat capacity (123.55 K): 81.91 ± 0.5 J/K/mol | molar heat capacity (125.53 K): 83.02 ± 0.5 J/K/mol | molar heat capacity (127.51 K): 84.1 ± 0.51 J/K/mol | molar heat capacity (129.49 K): 85.22 ± 0.51 J/K/mol | molar heat capacity (131.47 K): 86.32 ± 0.52 J/K/mol | molar heat capacity (133.45 K): 87.41 ± 0.52 J/K/mol | molar heat capacity (135.44 K): 88.53 ± 0.53 J/K/mol | molar heat capacity (137.43 K): 89.66 ± 0.53 J/K/mol | molar heat capacity (139.41 K): 90.74 ± 0.54 J/K/mol | molar heat capacity (141.41 K): 91.84 ± 0.55 J/K/mol | molar heat capacity (143.4 K): 92.95 ± 0.55 J/K/mol | molar heat capacity (145.4 K): 94.05 ± 0.56 J/K/mol | molar heat capacity (147.39 K): 95.15 ± 0.56 J/K/mol | molar heat capacity (149.39 K): 96.28 ± 0.57 J/K/mol | molar heat capacity (151.39 K): 97.39 ± 0.57 J/K/mol | molar heat capacity (153.39 K): 98.5 ± 0.57 J/K/mol | molar heat capacity (155.4 K): 99.63 ± 0.58 J/K/mol | molar heat capacity (157.4 K): 100.7 ± 0.6 J/K/mol | molar heat capacity (159.41 K): 101.8 ± 0.6 J/K/mol | molar heat capacity (161.42 K): 103 ± 0.6 J/K/mol | molar heat capacity (163.43 K): 104.1 ± 0.6 J/K/mol | molar heat capacity (165.44 K): 105.2 ± 0.6 J/K/mol | molar heat capacity (167.46 K): 106.4 ± 0.6 J/K/mol | molar heat capacity (169.47 K): 107.5 ± 0.6 J/K/mol | molar heat capacity (171.49 K): 108.6 ± 0.6 J/K/mol | molar heat capacity (173.51 K): 109.8 ± 0.6 J/K/mol | molar heat capacity (175.53 K): 110.9 ± 0.6 J/K/mol | molar heat capacity (177.54 K): 112 ± 0.6 J/K/mol | molar heat capacity (179.56 K): 113.2 ± 0.7 J/K/mol | molar heat capacity (181.59 K): 114.4 ± 0.7 J/K/mol | molar heat capacity (183.61 K): 115.5 ± 0.7 J/K/mol | molar heat capacity (185.63 K): 116.7 ± 0.7 J/K/mol | molar heat capacity (187.66 K): 117.8 ± 0.7 J/K/mol | molar heat capacity (189.68 K): 119 ± 0.7 J/K/mol | molar heat capacity (191.71 K): 120.2 ± 0.7 J/K/mol | molar heat capacity (193.74 K): 121.4 ± 0.7 J/K/mol
